The text below walks through data of patent US20250031734A1, “COMPOSITIONS COMPRISING REBAUDIOSIDE J” (PepsiCo, Inc., priority 2016, published 2025).

Where a SMILES comes first, the peptide text is derived from it.

One test has as its system sensory panelists. Briefly: Sweetness modifier test, control vs sample with 30 ppm rebaudioside J (Example 6A). Type of test: in vivo, human. The conditions noted are these: sweetener plus 30 ppm rebaudioside J vs sweetener alone; about 5% SEV / 5 degrees Brix; pH 3.1 phosphate buffer; 13 to 16 panelists. The protocol:
The ability of rebaudioside J to modify the sweetness of natural and artificial sweeteners was assessed by comparing the sweetness of control samples without rebaudioside J to the sweetness of samples containing a mixture of the natural or artificial sweetener being tested and rebaudioside J. Control solutions were prepared by dissolving sucrose, HFCS, acesulfame-K, aspartame, and sucralose in pH 3.1 phosphate buffer. […] Sucrose and high fructose corn syrup (HFCS) were prepared as 5 degrees Brix solutions. This concentration was confirmed with an Anton Paar refractometer. […] Experimental samples were identical to control samples except for the addition of 30 ppm rebaudioside J. Tasting Protocol: The number of sensory panelists ranged from 13 to 16 for all sweeteners tested. Panelists were provided with a control sample prepared as described above. Panelists were also provided with an otherwise identical experimental sample prepared as described above. Panelists were asked to determine which sample tasted sweeter. […] Panelists wore nose clips and were blinded to the identity of the samples. Sensitivity index, also referred to as a “d' score” was calculated using known statistical methods.

Test [1] relates to trained sensory panelists. Briefly: Targeted descriptive analysis (Example 4C). Type of test: in vivo, human. The conditions noted are these: vs rebaudioside A. Here is the method:
Panelists participated in an orientation session to familiarize themselves with sample set. They reviewed aroma, taste, flavor, and texture to determine the attributes most important for describing and differentiating the samples. These attributes were used to develop the ballot for the test evaluations. Three evaluations (replicates) were obtained from each panelist for each evaluation, and a total of 30 judgments were obtained for each sample. 45 mL of each sample was served in a sequential monadic presentation. The serving order was balanced for each panelist. For each test sample, the panelists indicated the intensity of each sensory attribute (labeled with a 3-digit number) on a 15-point line scale.

Test [2] has as its system trained sensory panelists. Briefly: Dose response, trained sensory panel, 15-point line scale (Example 4A). Format: in vivo, human. The following applies: eight concentrations 11.13-625.61 ppm. The protocol:
Eight concentrations of rebaudioside J with one blank solution were evaluated (Table 1). Trained sensory panelists participated in an orientation session to familiarize themselves with sample set. Three evaluations (replicates) were obtained from each panelist for each evaluation, and a total of 30 judgments were obtained for each sample.
The panelists were served 10 mL portions of each sample. A 10-minute break was taken between samples. To determine sweetness intensity, the panelists were provided sucrose-containing sweetness intensity reference samples for intensities 5, 8, and 10. For each test sample, the panelists indicated the sweetness intensity of the test sample (labeled with a 3-digit number) on a 15-point line scale.

A further test deals with human sense of taste. Briefly: Sweetness recognition threshold comparison with 1.5% sucrose. Format: in vivo. The following applies: rebaudioside J 40 ppm. From the text:
The term “sweetness recognition threshold concentration,” as generally used herein, is the lowest known concentration of a given sweetener or combination of sweeteners recognized as sweet by the human sense of taste, typically about 1.5% sucrose equivalence.

In the next test the test system is panelists. Briefly: Benchtop sweetness ranking on 1-10 scale against rebaudioside A 400 ppm and sucrose 6.5% (Example 3). Type of test: in vivo, human. The following applies: 400 ppm. Here is the method: Sample preparation: 4 degrees Brix HFCS control solution was prepared by adding 50.89 grams of 78.60 degrees Brix HFCS to 1000 g phosphoric acid base which was prepared by adding phosphoric acid dropwise into 1 L of AQUAFINA water until a pH of 3.1 was observed on a calibrated METTLER TOLEDO PH meter.
For some low soluble compounds, Branson 2800 Ultra Sonic Bath was used to dissolve the material. If any cloudiness persisted, the sample solution was passed through a paper filter. Solubility was confirmed by shining a laser pointer through the solution. If no diffraction was observed then it was assumed that the material was soluble.
Preparation of Rebaudioside A for Sensory Evaluation: 400 ppm rebaudioside A in water (pH=7) was prepared by dissolving 40 mg of rebaudioside A with stirring in 100 mL of water at room temperature.
Preparation of Sucrose for Sensory Evaluation: 6.5% sucrose in water (pH=7) was prepared by adding 6.5 g of sucrose and dissolving it in 93.5 g water (total 100 gr).
Tasting Protocol: Panelists were presented with two numbered samples and asked to note the sweet quality differences between the two samples. Panelists commented on sweetness onset, sweetness linger, overall sugar-like sweetness, and other qualities, such as bitter taste, metallic note, astringency, cooling sensation, any off-notes, and any associated flavors. […]

Test [3] has as its system trained sensory panelists. Description: Adaptation, sweetness and bitterness over time (Example 4B). Type of test: in vivo, human. Here is the method: Three evaluations (replicates) were obtained from each panelist for each evaluation, and a total of 30 judgments were obtained for each sample. The samples were evaluated for sweetness and bitterness. Samples were presented blind and coded with random three-digit numbers.
Each panelists took a sip, swirled the sample in his or her mouth for 10 seconds, expectorated and subsequently rated sweetness intensity and bitterness intensity using a 15-point line scale. Panelists repeated this procedure every 30 seconds for 3 minutes. After rinsing 6 times with water, the panelists were given a new sample and that sample was evaluated using the procedure described above

Where [4] appears, read: rated every 30 seconds for 3 minutes, 15-point line scale.

In the case of `CC1=CC(=O)NS(=O)(=O)O1` [Acesulfame potassium], in the test on sensory panelists, the “Panelist reporting Rebaudioside J increased sweetness (%)” value worked out at 85% and the “d' Score” value turned out to be 2.30.
As for `COC(=O)[C@H](Cc1ccccc1)NC(=O)[C@@H](N)CC(=O)O` [Aspartame, aspartame] (H-Asp-Phe-OMe), in the test on sensory panelists, the “Panelist reporting Rebaudioside J increased sweetness (%)” value is reported as 86% and the “d' Score” value is recorded as 2.13.
Take `C=C1C[C@@]23CC[C@H]4[C@@](C)(CCC[C@@]4(C)C(=O)O[C@@H]4O[C@H](CO)[C@@H](O)[C@H](O)[C@H]4O[C@@H]4O[C@@H](C)[C@H](O)[C@@H](O)[C@H]4O)[C@@H]2CC[C@]1(O[C@@H]1O[C@H](CO)[C@@H](O)[C@H](O[C@@H]2O[C@H](CO)[C@@H](O)[C@H](O)[C@H]2O)[C@H]1O[C@@H]1O[C@H](CO)[C@@H](O)[C@H](O)[C@H]1O)C3` [Rebaudioside J, rebaudioside J]: in test [1] (15-point line scale), the “bitterness compared with rebaudioside A (FIG. 6)” value is given as “less bitter” and the “chemical/artificial taste compared with rebaudioside A (FIG. 6)” value was “less chemical/artificial taste than rebaudioside A”. Moreover, in test [1], the “overall impression compared with rebaudioside A (FIG. 8)” value is recorded as “scored higher in overall impression than rebaudioside A”. In test [2], the “bitterness intensity (FIG. 4)” value was “low and only increased slightly with increasing concentration”; the “sweetness intensity (FIG. 4)” value is “increases with increasing concentration”. Moreover, the “sweetness compared with 1.5% sucrose (sweetness recognition threshold)” value in the test with human sense of taste is “less sweet than 1.5% sucrose”. Also, the “panelists' notes on taste characteristics” value in the test on panelists was “lack of bitterness, sugar-like, syrupy and round characteristics”. Moreover, the “sweetness score on scale of 1-10 (FIG. 3)” value with panelists (rebaudioside A 400 ppm assigned 5, sucrose 6.5% assigned 10, noseclips, blinded) is reported as 6.7. For the same compound, in test [3] (setting [4]), the “bitterness intensity over time (FIG. 5)” value was “remains low” and the “sweetness intensity over time (FIG. 5)” value was “decreases over time”. The “bitterness over time compared with rebaudioside A (FIG. 7)” value in test [3] (vs rebaudioside A) is “less bitter than rebaudioside A”.
For `OC[C@H]1O[C@H](O[C@]2(CCl)O[C@H](CCl)[C@@H](O)[C@@H]2O)[C@H](O)[C@@H](O)[C@H]1Cl` [Sucralose, sucralose], in the test on sensory panelists, the “Panelist reporting Rebaudioside J increased sweetness (%)” value is reported as 89% and the “d' Score” value was determined as 2.44.
On the same counts, the results for `OC[C@H]1O[C@@](CO)(O[C@H]2O[C@H](CO)[C@@H](O)[C@H](O)[C@H]2O)[C@@H](O)[C@@H]1O` [Sucrose, sucrose] are 85% and 2.00.
